# Results as given in US20240109853A1 (Shanghai Yao Yuan Biotechnology Co., Ltd., priority 2020, published 2024).
# How the values were obtained:
# ALPK1 = ALPK1 (Homo sapiens (Human), UniProt Q96QP1); assay: ALPK1 in vitro kinase assay (HTRF of TIFA phosphorylation); type: biochemical
# [1] = test system: ALPK1-dependent NFκB reporter gene activation in HEK293 cells stably expressing an NF-kB reporter (G9 cells); assay: NFκB gene reporter alkaline phosphatase assay; type: cell-based; settings: Homo sapiens, HEK293; read-out: NFkB assay IC50
# How it was run: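 Read-out: chromogenic pNPP turnover by NF-kB-driven alkaline phosphatase in G9 cells (HEK293, stable reporter). Compound pre-incubation 30 min before agonist D-glycero-D-manno-6-fluoro-heptose-1β-S-ADP. IC50 by four-parameter logistic regression.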
# Chain of ALPK1 (Q96QP1 whole entry): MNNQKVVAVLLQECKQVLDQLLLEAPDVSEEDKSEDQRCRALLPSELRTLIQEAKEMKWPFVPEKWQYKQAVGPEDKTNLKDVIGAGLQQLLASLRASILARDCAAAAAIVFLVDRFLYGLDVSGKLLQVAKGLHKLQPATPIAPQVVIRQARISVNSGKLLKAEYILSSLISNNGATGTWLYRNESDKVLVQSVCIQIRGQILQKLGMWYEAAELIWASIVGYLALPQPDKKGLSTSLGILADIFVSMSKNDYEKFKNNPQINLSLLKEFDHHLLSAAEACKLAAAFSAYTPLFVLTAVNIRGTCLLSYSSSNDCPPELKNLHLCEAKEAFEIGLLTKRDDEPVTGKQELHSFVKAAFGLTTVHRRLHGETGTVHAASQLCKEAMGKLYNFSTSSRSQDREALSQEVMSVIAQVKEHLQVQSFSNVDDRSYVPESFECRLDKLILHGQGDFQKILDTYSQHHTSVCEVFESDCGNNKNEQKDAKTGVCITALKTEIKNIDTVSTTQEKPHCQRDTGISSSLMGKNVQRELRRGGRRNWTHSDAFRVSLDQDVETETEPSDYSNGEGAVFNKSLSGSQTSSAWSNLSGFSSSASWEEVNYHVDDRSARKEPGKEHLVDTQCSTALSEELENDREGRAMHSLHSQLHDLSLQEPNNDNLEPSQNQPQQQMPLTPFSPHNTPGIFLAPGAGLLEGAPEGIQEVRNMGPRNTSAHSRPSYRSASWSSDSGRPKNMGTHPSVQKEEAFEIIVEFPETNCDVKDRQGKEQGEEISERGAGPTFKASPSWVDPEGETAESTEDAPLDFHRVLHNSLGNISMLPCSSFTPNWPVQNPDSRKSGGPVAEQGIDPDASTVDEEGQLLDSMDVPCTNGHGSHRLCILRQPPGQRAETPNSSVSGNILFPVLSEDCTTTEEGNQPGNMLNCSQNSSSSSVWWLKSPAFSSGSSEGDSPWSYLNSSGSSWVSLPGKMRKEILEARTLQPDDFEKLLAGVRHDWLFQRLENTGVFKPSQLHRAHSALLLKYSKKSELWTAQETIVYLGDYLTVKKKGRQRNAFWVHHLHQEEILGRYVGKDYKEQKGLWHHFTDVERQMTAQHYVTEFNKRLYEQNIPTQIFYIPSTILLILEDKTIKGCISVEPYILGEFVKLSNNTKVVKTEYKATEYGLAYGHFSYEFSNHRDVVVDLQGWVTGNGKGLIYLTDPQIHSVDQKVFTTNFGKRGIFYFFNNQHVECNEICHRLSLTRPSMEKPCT
SMILES,IC50 (ALPK1),IC50 [1]
"Cc1nc(N2CCNCC2)ncc1CNC(=O)Nc1nc(C(C)(C)c2ccc(Br)cc2)cs1 [Example A089, 1-(4-(2-(4-bromophenyl)propan-2-yl)thiazol-2-yl)-3-((4-methyl-2-(piperazin-1-yl)pyrimidin-5-yl)methyl)urea]",26 nM,1190 nM
"CC(C)(c1ccc(Br)cc1)c1csc(NC(=O)NCc2ccnc(N3CCNCC3)n2)n1 [Example A090, 1-(4-(2-(4-bromophenyl)propan-2-yl)thiazol-2-yl)-3-((2-(piperazin-1-yl)pyrimidin-4-yl)methyl)urea]",178 nM,1110 nM
"CC(C)(c1ccc(Br)cc1)c1csc(NC(=O)NCc2cnc(N3CCCNCC3)nc2)n1 [Example A091, 1-((2-(1,4-diazepan-1-yl)pyrimidin-5-yl)methyl)-3-(4-(2-(4-bromophenyl)propan-2-yl)thiazol-2-yl)urea]",135 nM,3450 nM
"CC(C)(c1ccc(Br)cc1)c1csc(NC(=O)NCc2ccc(N3CCNCC3)nc2)n1 [Example A092, 1-(4-(2-(4-bromophenyl)propan-2-yl)thiazol-2-yl)-3-((6-(piperazin-1-yl)pyridin-3-yl)methyl)urea]",20 nM,570 nM
"CC(C)(c1ccc(Br)cc1)c1csc(NC(=O)NCc2cnc(N3CCNCC3)cn2)n1 [Example A093, 1-(4-(2-(4-bromophenyl)propan-2-yl)thiazol-2-yl)-3-((5-(piperazin-1-yl)pyrazin-2-yl)methyl)urea]",9 nM,320 nM
"CC(C)(c1ccc(Br)cc1)c1csc(NC(=O)NCc2cc(N3CCNCC3)ncn2)n1 [Example A094, 1-(4-(2-(4-bromophenyl)propan-2-yl)thiazol-2-yl)-3-((6-(piperazin-1-yl)pyrimidin-4-yl)methyl)urea]",73 nM,1290 nM
"Cc1cc(CNC(=O)Nc2nc(C(C)(C)c3ccc(Br)cc3)cs2)ccc1N1CCNCC1 [Example A096, 1-(4-(2-(4-bromophenyl)propan-2-yl)thiazol-2-yl)-3-(3-methyl-4-(piperazin-1-yl)benzyl)urea]",69 nM,1430 nM
"CC(C)(c1ccc(Br)cc1)c1csc(NC(=O)NCc2ccc(N3CCNCC3)c(N)c2)n1 [Example A098, 1-(3-amino-4-(piperazin-1-yl)benzyl)-3-(4-(2-(4-bromophenyl)propan-2-yl)thiazol-2-yl)urea]",31 nM,1070 nM
"CC(C)(c1ccc(Br)cc1)c1csc(NC(=O)NCc2cnc(N3CCC(N)CC3)nc2)n1 [Example A099, 1-((2-(4-aminopiperidin-1-yl)pyrimidin-5-yl)methyl)-3-(4-(2-(4-bromophenyl)propan-2-yl)thiazol-2-yl)urea]",13 nM,450 nM
"CN1CCC(NC(=O)C2CCC(CNC(=O)Nc3nc(C(C)(C)c4ccc(Br)cc4)cs3)CC2)CC1 (stereo not drawn) [Example A100, 4-((3-(4-(2-(4-bromophenyl)propan-2-yl)thiazol-2-yl)ureido)methyl)-N-(1-methylpiperidin-4-yl)cyclohexane-1-carboxamide]",72 nM,1370 nM
"CC(C)(c1ccc(Br)cc1)c1csc(NC(=O)NC(CO)c2ccc(N3CCNCC3)cc2)n1 (stereo not drawn) [Example A101, 1-(4-(2-(4-bromophenyl)propan-2-yl)thiazol-2-yl)-3-(2-hydroxy-1-(4-(piperazin-1-yl)phenyl)ethyl)urea]",50 nM,1650 nM
"CC(C)(c1ccc(Br)cc1)c1csc(NC(=O)NCCCN2CCNCC2)n1 [Example A102, 1-(4-(2-(4-bromophenyl)propan-2-yl)thiazol-2-yl)-3-(3-(piperazin-1-yl)propyl)urea]",90 nM,710 nM
"CC(C)(c1ccc(Br)cc1)c1csc(NC(=O)NCc2cnc(N3CCN(CCO)CC3)nc2)n1 [Example A103, 1-(4-(2-(4-bromophenyl)propan-2-yl)thiazol-2-yl)-3-((2-(4-(2-hydroxyethyl)piperazin-1-yl)pyrimidin-5-yl)methyl)urea]",97 nM,6200 nM
"COc1ccc(C(C)(C)c2csc(NC(=O)NCc3cncnc3)n2)cc1 [Example A104, 1-(4-(2-(4-methoxyphenyl)propan-2-yl)thiazol-2-yl)-3-(pyrimidin-5-ylmethyl)urea]",223 nM,1690 nM
"COc1ccc(C(C)(C)c2csc(NC(=O)NCc3cnc(NCCO)c(F)c3)n2)cc1 [Example A105, 1-((5-fluoro-6-((2-hydroxyethyl)amino)pyri-din-3-yl)methyl)-3-(4-(2-(4-methoxyphenyl)propan-2-yl)thiazol-2-yl)urea]",144 nM,1020 nM
"CN(C)C1CCN(c2ccc(CNC(=O)Nc3nc(C(C)(C)c4ccc(Br)cc4)cs3)cn2)C1 (stereo not drawn) [Example A106, 1-(4-(2-(4-bromophenyl)propan-2-yl)thiazol-2-yl)-3-((6-(3-(dimethylamino)pyrrolidin-1-yl)pyridin-3-yl)methyl)urea]",48 nM,6720 nM
"CC(C)(c1ccc(Br)cc1)c1csc(NC(=O)NCc2ccc(NCCO)cc2)n1 [Example A108, 1-(4-(2-(4-bromophenyl)propan-2-yl)thiazol-2-yl)-3-(4-((2-hydroxyethyl)amino)ben-zyl)urea]",244 nM,820 nM

SMILES,IC50 (ALPK1),IC50 [1]
"COCCNC(=O)Nc1nc(C(C)(C)c2ccc(OC)cc2)cs1 [Example A110, 1-(2-methoxyethyl)-3-(4-(2-(4-methoxyphenyl)propan-2-yl)thiazol-2-yl)urea]",193 nM,940 nM
"COCCCNC(=O)Nc1nc(C(C)(C)c2ccc(OC)cc2)cs1 [Example A111, 1-(4-(2-(4-methoxyphenyl)propan-2-yl)thiazol-2-yl)-3-(3-methoxypropyl)urea]",127 nM,1240 nM
"CCCN1CCC(NC(=O)c2ccc(CNC(=O)Nc3nc(C(C)(C)c4ccc(OC)cc4)cs3)cn2)CC1 [Example A115, 5-((3-(4-(2-(4-methoxyphenyl)propan-2-yl)thiazol-2-yl)ureido)methyl)-N-(1-propylpiperidin-4-yl)picolinamide]",19 nM,830 nM
"CCCN1CCN(c2ccc(CNC(=O)Nc3nc(C(C)(C)c4ccc(OC)cc4)cs3)cc2C(N)=O)CC1 [Example A116, 5-((3-(4-(2-(4-methoxyphenyl)propan-2-yl)thiazol-2-yl)ureido)methyl)-2-(4-propylpiperazin-1-yl)benzamide]",72 nM,720 nM
"CN1CCN(Cc2c(F)cc(CNC(=O)Nc3nc(C(C)(C)c4ccc(Br)cc4)cs3)cc2F)CC1 [Example A117, 1-(4-(2-(4-bromophenyl)propan-2-yl)thiazol-2-yl)-3-(3,5-difluoro-4-((4-methylpiperazin-1-yl)methyl)benzyl)urea]",67 nM,5030 nM
"CC(NC(=O)Nc1nc(C(C)(C)c2ccc(Br)cc2)cs1)c1ccc(CN2CCN(C)CC2)cc1 (stereo not drawn) [Example A118, 1-(4-(2-(4-bromophenyl)propan-2-yl)thiazol-2-yl)-3-(1-(4-((4-methylpiperazin-1-yl)methyl)phenyl)ethyl) urea]",227 nM,4380 nM
"CC(C)(c1ccc(Br)cc1)c1csc(NC(=O)NCc2cnc(NCCO)nc2)n1 [Example A119, 1-(4-(2-(4-bromophenyl)propan-2-yl)thiazol-2-yl)-3-((2-((2-hydroxyethyl)amino)pyri-midin-5-yl)methyl)urea]",36 nM,4430 nM
"COc1ccc(C(C)(C)c2csc(NC(=O)NCc3ccc(C(=O)NC4CCN(C)CC4)nc3)n2)cc1 [Example A120, 5-((3-(4-(2-(4-methoxyphenyl)propan-2-yl)thiazol-2-yl)ureido)methyl)-N-(1-methylpiperidin-4-yl)picolinamide]",53 nM,990 nM
"COc1ccc(C(C)(C)c2csc(NC(=O)NCc3cnc(N4CCNC(=O)C4)c(F)c3)n2)cc1 [Example A121, 1-((5-fluoro-6-(3-oxopiperaizn-1-yl)pyridin-3-yl)methyl)-3-(4-(2-(4-methoxyphenyl)propan-2-yl)thiazol-2-yl)urea]",209 nM,2020 nM
"COc1ccc(C(C)(C)c2csc(NC(=O)NC3CCC(O)CC3)n2)cc1 (stereo not drawn) [Example A122, 1-(4-hydroxycyclohexyl)-3-(4-(2-(4-methoxyphenyl)propan-2-yl)thiazol-2-yl)urea]",219 nM,1700 nM
"COc1ccc(C(C)(C)c2csc(NC(=O)NC3CCCC(O)C3)n2)cc1 (stereo not drawn) [Example A123, 1-(3-hydroxycyclohexyl)-3-(4-(2-(4-methoxyphenyl)propan-2-yl)thiazol-2-yl)urea]",354 nM,2400 nM
"COc1ccc(C(C)(C)c2csc(NC(=O)NCCc3ccncc3)n2)cc1 [Example A124, 1-(4-(2-(4-methoxyphenyl)propan-2-yl)thiazol-2-yl)-3-(2-(pyridin-4-yl)ethyl)urea]",165 nM,1050 nM
"CC(C)NC(=O)Nc1nc(C(C)(C)c2ccc(Br)cc2)cs1 [Example A125, 1-(4-(2-(4-bromophenyl)propan-2-yl)thiazol-2-yl)-3-isopropylurea]",28 nM,2800 nM
"CC(C)(c1ccc(Br)cc1)c1csc(NC(=O)NCCCO)n1 [Example A126, 1-(4-(2-(4-bromophenyl)propan-2-yl)thiazol-2-yl)-3-(3-hydroxypropyl)urea]",88 nM,2960 nM
"CC(C)(c1ccc(Br)cc1)c1csc(NC(=O)NCCCN2CCOCC2)n1 [Example A127, 1-(4-(2-(4-bromophenyl)propan-2-yl)thiazol-2-yl)-3-(3-morpholinopropyl)urea]",113 nM,940 nM
"COc1ccc(C(C)(C)c2csc(NC(=O)NCCCCO)n2)cc1 [Example A128, 1-(4-hydroxybutyl)-3-(4-(2-(4-methoxyphenyl)propan-2-yl)thiazol-2-yl)urea]",146 nM,530 nM
